Read-outs that look alike come from different tables or passages of the source.
Tests used:
[1] = tested on: NB508 mouse pancreatic ductal adenocarcinoma cells; assay: In vitro growth inhibition screen at 5 µM, NB508 cells; assay type: cell-based; details: 72 h at 37 °C
Source text: Figure 1 (A) Structure and crystal packing of previously studied PEB-disubstituted (A.1) and monosubstituted (A.2 and A.3) benzimidazolium salts. Compound A.1 is an efficient chloride transporter forming channels and generating holes in bacterial membranes and red blood cellular membranes. Compound A.2 penetrates phospholipid membranes but is less efficient as ion transporter as it forms more compact aggregates; its toxicity on RBC is lower than compound A.1. The replacement of the phenyl group with a methyl group in compound A.3 results in the formation of even more compact aggregates with even lower toxicity on RBC. (B) Structure of PEB-substituted biguanidium salts. For each biguanide we prepared three series of biguanidium salts with different counterions. (C) Synthesis of 4-(phenylethynyl)benzylbiguanide 1 and 4-(phenylethyl)benzylbiguanide 2; (a) Phenylacetylene, PdCl2PPh3, CuI, PPh3, Et3N, THF, 70 °C, o.n. (b) NaCN(BH3)3, EtOHNH4OAc sat./NH3, 80 °C, o.n (c) Dicyandiamide, TMSCl, THFanh., 145 °C, 1 h (d) Pd/C 10%, H2, EtOH/AcOEt, 60 °C, 2 h. (D) Synthesis of 4-(phenylethynylphenyl)biguanidium 3 and 4-(phenylethylphenyl)biguanidium 4 (a) (1) Boc2O, THF, 2 h, (2) Phenylacetylene, PdCl2PPh3, CuI, PPH3, Et3N, THF, 70°, o.n. (b) TFA, DCM, 60 °C, 2 h (c) Dicyandiamide, TMSCl, THFanh, 145 °C, 1 h (d) Pd/C 10%, H2, EtOH/AcOEt, 60 °C, 2 h. The NMR spectra of the synthesized compounds are given in Supplementary Figs. S1–S24. (E) Relative growth of NB508 mouse pancreatic ductal adenocarcinoma cells and IMR90 fibroblasts exposed to 5 µM of PEB-biguanidium salts. Cells were incubated for 72 h at 37 °C. Errors bars represent the standard error of the mean (SEM), *p < 0.05, **p < 0.01, Student’s t test. (F) Crystal structure of 1b showing its self-assembly in the solid state. Crystal data is available in Supplementary Tables S1–S8 and crystal packing in Supplementary Fig. S25. TEXT PRINTED IN THE PICTURE: (A) A.1: HC50: 0.15 mM | (A) A.2: HC50: 1 mM | (A) A.3: HC50: 150 mM
NB508 is an aggressive pro-metastatic pancreatic cancer cell line that we used previously to study the role of mitochondria in pancreatic cancer. […].

[2] = HPTS assay, internal pH of EYPC liposomes; details: 5 mM (50 mol% relative to 10 mM EYPC), NaOH pulse at 300 s
Method: (§1) Figure 2 (A) Partition of compounds in an U-tube experiment. Concentration of biguanide on the trans-side of the U-tube at 48 h and 72 h at 25 °C, after addition of 250 µM of biguanide on the cis-side. (B) Variation in the internal pH of HPTS-containing EYPC liposomes. Intravesicular solution: 1 mM HPTS, 10 mM HEPES, and 100 mM NaCl, adjusted to pH = 7.4, and extravesicular solution: 10 mM HEPES and 100 mM NaCl, adjusted to pH = 7.4. Biguanidiums were injected after 50 s at 5 mM (50 mol% relative to the 10 mM EYPC concentration), a NaOH pulse was induced at 300 s, and the liposomes were lysed with Triton-X at 550 s. Each curve is the average of three independent measurements. (C) Fluorescence of safranin O in the EYPC liposomes. Biguanidium salts were injected at 5 mM (50 mol% relative to the 10 mM EYPC concentration) at 50 s. Each curve is the average of three independent measurements. […] Mitochondrial isolation was performed according to the previously reported protocol.

[3] = tested on: KP4 cells; assay: Growth assay (crystal violet), KP4 cells; assay type: cell-based, human; details: for IC50: KP4 cells
Method: All chemicals were purchased from Aldrich Chemicals in their highest purity and used without further purification. Deuterated dimethylsulfoxide (DMSO-d^6) and deuterated chloroform (CDCl3) were purchased from CDN Isotopes. NMR spectra were recorded on Bruker advance 400 and 100 spectrometers. Coupling constants are given in hertz (Hz) and chemical shifts are given in parts per million (ppm, δ) measured relative to the residual solvent (the multiplicity of the signals are given as s: singlet, d: doublet, t: triplet, and m: multiplet). High-resolution mass spectra (HRMS) were recorded on a TSQ Quantum Ultra (Thermo Scientific) triple quadrupole with accurate mass option instrument (Université de Montréal Mass Spectrometry Facility). MS experiences were performed using an UltrafleXtreme MALDI TOF/TOF mass spectrometer equipped with a SmartBeam II Nd:Yag/355 nm laser operating at 1 kHz and providing a laser focus down to 20 μm in diameter (Bruker Daltonics, Billerica, MA). The data acquisition for MS was performed in positive ion mode using the linear geometry with flexControl 3.4 (Bruker Daltonics, Billerica, MA). Acceleration voltage was set to + 25 kV and all other instrumental parameters (delayed extraction parameters, source voltages, detector gain, laser energy, etc.) were optimized for maximum S/N for the drug compounds. L-α-Phosphatidylcholine was purchased from Avanti Polar Lipids. Transport and depolarization studies as well as absorbance measurements were performed on a Varian Cary Eclipse fluorescence spectrophotometer. The hemolysis assays were performed on a Fluostar Optima plate reader. Single crystals of C18H18F3N5O3S were obtained from chloroform. A suitable crystal was selected and analysed on a Bruker Venture Metaljet diffractometer. Crystal violet retention assay was used for cell growth assays and IC50 were determined using Prism (GraphPad). NAD/NADH quantitation colorimetric kit (#K337-100) from Biovision was used according to manufacturer’s instructions. ECAR (extracellular acidification rate) and OCR of KP4 cells (oxygen consumption rate) were measured on a Seahorse XF-24 (Agilent).
Experimental. KP4 (Riken RCB1005) and PSN1 (ATCC: CRM-CRL-3211), were cultured in Dulbecco's modified Eagle's medium (DMEM) (Wisent, St-Bruno, QC) supplemented with 10 % of fetal bovine serum (FBS) (Wisent). HPNE hTERT (ATCC: CRL1423) were cultured in a mix of 75% DMEM without glucose (Sigma Cat#. D-5030) with additional 2 mM L-glutamine and 1.5 g/L sodium bicarbonate, 25% Medium M3 Base (Incell Corp. Cat# M300F- 500), fetal bovine serum 5% (wisent 10 ng/ml human recombinant EGF (Sigma-Aldrich), 5.5 mM D-glucose (Sigma-Aldrich), 750 ng/ml puromycin (Sigma-Aldrich). For dose-response assays, cells were seeded in 96 well plates (company). After 24 h, treatments were applied and cells were grown for 3 more days. Crystal violet retention assay used for cell growth assays were described previously^2. The data is expressed as relative absorbance of crystal violet extracted from the cells and diluted in 10 % acetic acid. IC50 were determined using Prism (GraphPad). Tumor spheres were grew according to Ferbeyre et al^3.

[4] = Safranin O assay, membrane potential of EYPC liposomes; details: 5 mM (50 mol% relative to 10 mM EYPC)
Method: as §1

[5] = Homo sapiens, KP-4, 72 h, 72 hours, read-out: IC50

| SMILES | Growth inhibition of NB508 cells [1] | Change of internal vesicular pH (HPTS) [2] | IC50 [3, 5] | Membrane depolarization (Safranin-O fluorescence) [4] | IC50 fold lower than phenformin ([3]; KP4 and Panc1 cells) | IC50 ([3]; 3 days treatment, crystal violet retention assay, read-out: IC50 KP4) | Fold more active than metformin ([3]; conclusion) |
| --- | --- | --- | --- | --- | --- | --- | --- |
| CN(C)C(=N)NC(=N)N [metformin, 1,1-dimethylbiguanide, reference compound] | no effect was observed | no membrane activity | ~5000 µM | did not show this activity | – | – | – |
| N=C(N)NC(=N)NCc1ccc(C#Cc2ccccc2)cc1 [1b, 4-(phenylethynyl)benzylbiguanide] | most important antiproliferative activities | basification of the internal vesicular pH | 6.1 µM | depolarization of the membrane | 8–12 fold | 6.13 µM | 1000 fold |

— publication PMC8110578, “Phenylethynylbenzyl-modified biguanides inhibit pancreatic cancer tumor growth” (Scientific Reports, 2021)
